Biological target: T1, CYP1A2 (Homo sapiens, UniProt P05177)
T1 sequence (P05177 1-516): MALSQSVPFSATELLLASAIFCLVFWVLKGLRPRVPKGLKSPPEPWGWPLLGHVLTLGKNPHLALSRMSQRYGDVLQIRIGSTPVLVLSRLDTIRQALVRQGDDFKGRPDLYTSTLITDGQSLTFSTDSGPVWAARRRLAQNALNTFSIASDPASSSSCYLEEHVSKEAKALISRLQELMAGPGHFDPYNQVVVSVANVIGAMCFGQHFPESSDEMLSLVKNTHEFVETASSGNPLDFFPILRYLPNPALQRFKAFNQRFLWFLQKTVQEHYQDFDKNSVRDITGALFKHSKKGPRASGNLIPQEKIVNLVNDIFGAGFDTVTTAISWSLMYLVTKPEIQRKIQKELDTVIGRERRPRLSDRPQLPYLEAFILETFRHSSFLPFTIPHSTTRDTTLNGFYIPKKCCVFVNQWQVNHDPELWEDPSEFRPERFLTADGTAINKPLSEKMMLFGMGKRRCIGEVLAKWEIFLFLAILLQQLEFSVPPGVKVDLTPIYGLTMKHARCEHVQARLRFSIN
Test: in vitro
Set-up: cytochrome P450 isoform inhibition liability assay
Details: not given

| Structure (SMILES) | inhibition at 10 µM [%] |
| --- | --- |
| Nc1cccc(-c2ccc(-c3nnc(N)s3)cc2)c1 [2b] | 44.6 ± 1.5 |
| COC(=O)C(Cc1ccccc1)Nc1nnc(N)s1 (centres unmarked) [4p, Methyl 2G((5GaminoG1,3,4GthiadiazolG2Gyl)amino)G3Gphenylpropanoate] | -1.5 ± 4.3 |
| Nc1nnc(N)s1 [4a] | 40.5 ± 3 |
| COc1cccc(CNc2nnc(N)s2)c1 [4i] | 15.9 ± 1.1 |
| Nc1nnc(-c2ccc(OCc3ccc(Cl)c(Cl)c3)cc2)s1 [1r] | 24.7 ± 1.4 |

Biological target: CYP2C9 (Homo sapiens, UniProt P11712)
Sequence (P11712 whole entry): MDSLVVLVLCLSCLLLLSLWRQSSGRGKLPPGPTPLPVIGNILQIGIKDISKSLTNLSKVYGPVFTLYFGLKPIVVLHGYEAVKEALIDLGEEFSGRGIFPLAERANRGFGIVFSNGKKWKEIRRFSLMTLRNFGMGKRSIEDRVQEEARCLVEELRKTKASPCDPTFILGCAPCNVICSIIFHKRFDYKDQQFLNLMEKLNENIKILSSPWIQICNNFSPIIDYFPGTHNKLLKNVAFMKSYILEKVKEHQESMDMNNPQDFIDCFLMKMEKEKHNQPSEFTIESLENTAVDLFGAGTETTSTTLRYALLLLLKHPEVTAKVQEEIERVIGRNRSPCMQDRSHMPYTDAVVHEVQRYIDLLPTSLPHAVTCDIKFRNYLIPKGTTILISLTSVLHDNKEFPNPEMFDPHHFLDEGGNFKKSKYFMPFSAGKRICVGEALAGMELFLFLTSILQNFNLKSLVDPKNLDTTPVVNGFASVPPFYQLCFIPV
Test: in vitro
Set-up: cytochrome P450 isoform inhibition liability assay
Details: not given

| Structure (SMILES) | inhibition at 10 µM [%] |
| --- | --- |
| Nc1cccc(-c2ccc(-c3nnc(N)s3)cc2)c1 [2b] | 1.9 ± 1 |
| COC(=O)C(Cc1ccccc1)Nc1nnc(N)s1 (centres unmarked) [4p, Methyl 2G((5GaminoG1,3,4GthiadiazolG2Gyl)amino)G3Gphenylpropanoate] | -10.9 ± 3 |
| Nc1nnc(N)s1 [4a] | 46 ± 1.7 |
| COc1cccc(CNc2nnc(N)s2)c1 [4i] | 33.5 ± 1.7 |
| Nc1nnc(-c2ccc(OCc3ccc(Cl)c(Cl)c3)cc2)s1 [1r] | 31.3 ± 0.4 |

Biological target: CYP2C19 (Homo sapiens, UniProt P33261)
Sequence (P33261 whole entry): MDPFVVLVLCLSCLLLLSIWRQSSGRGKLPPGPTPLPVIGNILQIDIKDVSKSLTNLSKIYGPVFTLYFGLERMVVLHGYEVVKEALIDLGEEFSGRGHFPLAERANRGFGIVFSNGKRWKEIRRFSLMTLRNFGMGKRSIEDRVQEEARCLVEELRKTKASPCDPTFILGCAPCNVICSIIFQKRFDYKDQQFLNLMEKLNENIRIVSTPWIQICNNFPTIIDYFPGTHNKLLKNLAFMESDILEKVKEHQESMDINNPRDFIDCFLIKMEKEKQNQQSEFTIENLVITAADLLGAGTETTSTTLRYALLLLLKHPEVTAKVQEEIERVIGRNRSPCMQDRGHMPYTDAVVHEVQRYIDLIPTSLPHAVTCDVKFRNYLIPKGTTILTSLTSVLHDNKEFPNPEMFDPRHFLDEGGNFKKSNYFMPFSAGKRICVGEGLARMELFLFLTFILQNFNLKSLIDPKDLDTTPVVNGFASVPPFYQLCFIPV
Test: in vitro
Set-up: cytochrome P450 isoform inhibition liability assay
Details: not given

| Structure (SMILES) | inhibition at 10 µM [%] |
| --- | --- |
| Nc1cccc(-c2ccc(-c3nnc(N)s3)cc2)c1 [2b] | -3.9 ± 13.3 |
| COC(=O)C(Cc1ccccc1)Nc1nnc(N)s1 (centres unmarked) [4p, Methyl 2G((5GaminoG1,3,4GthiadiazolG2Gyl)amino)G3Gphenylpropanoate] | -27.4 ± 13.1 |
| Nc1nnc(N)s1 [4a] | 62.3 ± 8.3 |
| COc1cccc(CNc2nnc(N)s2)c1 [4i] | 45.9 ± 0.8 |
| Nc1nnc(-c2ccc(OCc3ccc(Cl)c(Cl)c3)cc2)s1 [1r] | 69.6 ± 5.2 |

Biological target: CYP2D6 (Homo sapiens, UniProt P10635)
Sequence (P10635 whole entry): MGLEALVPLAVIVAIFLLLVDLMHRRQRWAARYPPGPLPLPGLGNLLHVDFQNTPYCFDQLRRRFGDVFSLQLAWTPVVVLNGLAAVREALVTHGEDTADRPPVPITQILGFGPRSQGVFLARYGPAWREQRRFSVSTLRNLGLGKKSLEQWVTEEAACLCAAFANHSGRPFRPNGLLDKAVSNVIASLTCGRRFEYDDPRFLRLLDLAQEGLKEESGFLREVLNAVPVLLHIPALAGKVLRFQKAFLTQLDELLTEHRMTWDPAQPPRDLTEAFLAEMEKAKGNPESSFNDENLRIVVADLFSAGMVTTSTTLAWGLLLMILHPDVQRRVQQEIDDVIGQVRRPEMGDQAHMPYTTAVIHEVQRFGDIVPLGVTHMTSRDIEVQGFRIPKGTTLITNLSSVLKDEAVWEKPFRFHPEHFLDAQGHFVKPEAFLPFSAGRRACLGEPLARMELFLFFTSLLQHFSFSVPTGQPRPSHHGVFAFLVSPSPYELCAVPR
Test: in vitro
Set-up: cytochrome P450 isoform inhibition liability assay
Details: not given

| Structure (SMILES) | inhibition at 10 µM [%] |
| --- | --- |
| Nc1cccc(-c2ccc(-c3nnc(N)s3)cc2)c1 [2b] | -16.1 ± 6.6 |
| COC(=O)C(Cc1ccccc1)Nc1nnc(N)s1 (centres unmarked) [4p, Methyl 2G((5GaminoG1,3,4GthiadiazolG2Gyl)amino)G3Gphenylpropanoate] | 47.4 ± 3.3 |
| Nc1nnc(N)s1 [4a] | -15.9 ± 8.6 |
| COc1cccc(CNc2nnc(N)s2)c1 [4i] | 105.2 ± 0.1 |
| Nc1nnc(-c2ccc(OCc3ccc(Cl)c(Cl)c3)cc2)s1 [1r] | 48 ± 0.9 |

Biological target: CYP3A4 (Homo sapiens, UniProt P08684)
Sequence (P08684 whole entry): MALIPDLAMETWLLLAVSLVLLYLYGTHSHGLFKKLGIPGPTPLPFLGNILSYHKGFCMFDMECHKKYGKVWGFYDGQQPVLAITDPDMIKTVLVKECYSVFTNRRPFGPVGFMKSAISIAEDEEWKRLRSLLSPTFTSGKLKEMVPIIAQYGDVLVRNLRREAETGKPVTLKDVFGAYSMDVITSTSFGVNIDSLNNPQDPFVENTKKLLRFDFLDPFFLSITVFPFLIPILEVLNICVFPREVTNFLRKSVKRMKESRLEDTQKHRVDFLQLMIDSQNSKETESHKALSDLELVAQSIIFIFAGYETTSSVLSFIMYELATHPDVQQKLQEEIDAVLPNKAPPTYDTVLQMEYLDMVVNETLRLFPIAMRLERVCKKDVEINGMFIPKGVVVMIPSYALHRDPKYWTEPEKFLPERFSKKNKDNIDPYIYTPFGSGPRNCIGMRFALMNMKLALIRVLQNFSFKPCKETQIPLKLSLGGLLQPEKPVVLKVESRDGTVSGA
Test: in vitro
Set-up: cytochrome P450 isoform inhibition liability assay
Details: not given

| Structure (SMILES) | inhibition at 10 µM [%] |
| --- | --- |
| Nc1cccc(-c2ccc(-c3nnc(N)s3)cc2)c1 [2b] | 32 ± 3.7 |
| COC(=O)C(Cc1ccccc1)Nc1nnc(N)s1 (centres unmarked) [4p, Methyl 2G((5GaminoG1,3,4GthiadiazolG2Gyl)amino)G3Gphenylpropanoate] | -12.5 ± 6.8 |
| Nc1nnc(N)s1 [4a] | 53.4 ± 4.4 |
| COc1cccc(CNc2nnc(N)s2)c1 [4i] | 87.7 ± 0.4 |
| Nc1nnc(-c2ccc(OCc3ccc(Cl)c(Cl)c3)cc2)s1 [1r] | 14.9 ± 5.7 |

Tested on: T. b. brucei Lister 427 bloodstream forms
Test: In vitro activity against T. brucei (HTS SYBR Green I growth inhibition assay)
Assay type: cell-based, Trypanosoma brucei brucei
Details: 50 μM; standard deviation within ±10% of the value

| Structure (SMILES) | % Inhibition T. brucei at 50 μM [%] |
| --- | --- |
| COc1cccc(CNc2nnc(N)s2)c1 [4i] | 95.6 |

Same assay, conditions: Trypanosoma brucei, 50 μM; standard deviation within ±10% of the value; read-out: % Inhibition T. brucei at 50 μM

| Structure (SMILES) | inhibition at 50 µM [%] |
| --- | --- |
| Nc1cccc(-c2ccc(-c3nnc(N)s3)cc2)c1 [2b] | 33.4 |
| COC(=O)C(Cc1ccccc1)Nc1nnc(N)s1 (centres unmarked) [4p, Methyl 2G((5GaminoG1,3,4GthiadiazolG2Gyl)amino)G3Gphenylpropanoate] | 0.4 |
| Nc1nnc(N)s1 [4a] | < 0 |
| Nc1nnc(-c2ccc(OCc3ccc(Cl)c(Cl)c3)cc2)s1 [1r] | 58.4 |

Same assay, conditions: Trypanosoma brucei, standard deviation within ±10% of the value; read-out: EC50 T. brucei

| Structure (SMILES) | EC50 [µM] |
| --- | --- |
| COc1cccc(CNc2nnc(N)s2)c1 [4i] | 16 |

Tested on: not listed separately
Test: in vitro
Set-up: cytotoxicity, per cent cell growth of WI-38 fibroblasts
Details: human, wi-38 cells; read-out: % cell growth W1-38 at 10uM

| Structure (SMILES) | viability at 10 µM [%] |
| --- | --- |
| Nc1cccc(-c2ccc(-c3nnc(N)s3)cc2)c1 [2b] | 73.4 ± 2.5 |
| COC(=O)C(Cc1ccccc1)Nc1nnc(N)s1 (centres unmarked) [4p, Methyl 2G((5GaminoG1,3,4GthiadiazolG2Gyl)amino)G3Gphenylpropanoate] | 114 ± 12.7 |
| Nc1nnc(N)s1 [4a] | 81.3 ± 13.5 |
| COc1cccc(CNc2nnc(N)s2)c1 [4i] | 129 ± 14.1 |
| Nc1nnc(-c2ccc(OCc3ccc(Cl)c(Cl)c3)cc2)s1 [1r] | 68.7 ± 17.9 |

Biological target: T2, TbPTR1 (Trypanosoma brucei brucei, UniProt O76290)
T2 construct: made in house
T2 sequence (O76290 1-268): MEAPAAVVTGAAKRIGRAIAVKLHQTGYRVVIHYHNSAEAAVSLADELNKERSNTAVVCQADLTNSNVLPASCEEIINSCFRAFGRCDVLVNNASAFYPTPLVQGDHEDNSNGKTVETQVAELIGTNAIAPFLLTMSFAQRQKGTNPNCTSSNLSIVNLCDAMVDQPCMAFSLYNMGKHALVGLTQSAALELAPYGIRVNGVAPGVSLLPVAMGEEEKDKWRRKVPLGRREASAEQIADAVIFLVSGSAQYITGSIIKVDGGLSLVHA
Test: biochemical
Details: 50 μM compound; read-out: % Inhibition TbPTR1 at 50 μM

| Structure (SMILES) | inhibition at 50 µM [%] |
| --- | --- |
| Nc1cccc(-c2ccc(-c3nnc(N)s3)cc2)c1 [2b] | 16.2 ± 0.5 |
| COC(=O)C(Cc1ccccc1)Nc1nnc(N)s1 (centres unmarked) [4p, Methyl 2G((5GaminoG1,3,4GthiadiazolG2Gyl)amino)G3Gphenylpropanoate] | 3.9 ± 0.3 |
| Nc1nnc(N)s1 [4a] | 14.2 ± 0.8 |
| COc1cccc(CNc2nnc(N)s2)c1 [4i] | 31 ± 1.3 |
| Nc1nnc(-c2ccc(OCc3ccc(Cl)c(Cl)c3)cc2)s1 [1r] | < 0 |

Same assay, conditions: dose-response 0.001-100 μM

| Structure (SMILES) | IC50 [µM] |
| --- | --- |
| COc1cccc(CNc2nnc(N)s2)c1 [4i] | 56 |

Tested on: 786-O
Test: cells
Set-up: mitochondrial toxicity in 786-O renal carcinoma cells
Details: Homo sapiens, 786-0; mitochondrial toxicity

| Structure (SMILES) | inhibition at 10 µM [%] |
| --- | --- |
| Nc1cccc(-c2ccc(-c3nnc(N)s3)cc2)c1 [2b] | -1 ± 2.2 |
| COC(=O)C(Cc1ccccc1)Nc1nnc(N)s1 (centres unmarked) [4p, Methyl 2G((5GaminoG1,3,4GthiadiazolG2Gyl)amino)G3Gphenylpropanoate] | 1.72 ± 5.2 |
| Nc1nnc(N)s1 [4a] | 1.7 ± 6.6 |
| COc1cccc(CNc2nnc(N)s2)c1 [4i] | -15.3 ± 24.3 |
| Nc1nnc(-c2ccc(OCc3ccc(Cl)c(Cl)c3)cc2)s1 [1r] | 4.7 ± 7.8 |

Biological target: T3, hERG (Homo sapiens, UniProt Q12809)
T3 construct: gene KCNH2
T3 sequence (Q12809 whole entry): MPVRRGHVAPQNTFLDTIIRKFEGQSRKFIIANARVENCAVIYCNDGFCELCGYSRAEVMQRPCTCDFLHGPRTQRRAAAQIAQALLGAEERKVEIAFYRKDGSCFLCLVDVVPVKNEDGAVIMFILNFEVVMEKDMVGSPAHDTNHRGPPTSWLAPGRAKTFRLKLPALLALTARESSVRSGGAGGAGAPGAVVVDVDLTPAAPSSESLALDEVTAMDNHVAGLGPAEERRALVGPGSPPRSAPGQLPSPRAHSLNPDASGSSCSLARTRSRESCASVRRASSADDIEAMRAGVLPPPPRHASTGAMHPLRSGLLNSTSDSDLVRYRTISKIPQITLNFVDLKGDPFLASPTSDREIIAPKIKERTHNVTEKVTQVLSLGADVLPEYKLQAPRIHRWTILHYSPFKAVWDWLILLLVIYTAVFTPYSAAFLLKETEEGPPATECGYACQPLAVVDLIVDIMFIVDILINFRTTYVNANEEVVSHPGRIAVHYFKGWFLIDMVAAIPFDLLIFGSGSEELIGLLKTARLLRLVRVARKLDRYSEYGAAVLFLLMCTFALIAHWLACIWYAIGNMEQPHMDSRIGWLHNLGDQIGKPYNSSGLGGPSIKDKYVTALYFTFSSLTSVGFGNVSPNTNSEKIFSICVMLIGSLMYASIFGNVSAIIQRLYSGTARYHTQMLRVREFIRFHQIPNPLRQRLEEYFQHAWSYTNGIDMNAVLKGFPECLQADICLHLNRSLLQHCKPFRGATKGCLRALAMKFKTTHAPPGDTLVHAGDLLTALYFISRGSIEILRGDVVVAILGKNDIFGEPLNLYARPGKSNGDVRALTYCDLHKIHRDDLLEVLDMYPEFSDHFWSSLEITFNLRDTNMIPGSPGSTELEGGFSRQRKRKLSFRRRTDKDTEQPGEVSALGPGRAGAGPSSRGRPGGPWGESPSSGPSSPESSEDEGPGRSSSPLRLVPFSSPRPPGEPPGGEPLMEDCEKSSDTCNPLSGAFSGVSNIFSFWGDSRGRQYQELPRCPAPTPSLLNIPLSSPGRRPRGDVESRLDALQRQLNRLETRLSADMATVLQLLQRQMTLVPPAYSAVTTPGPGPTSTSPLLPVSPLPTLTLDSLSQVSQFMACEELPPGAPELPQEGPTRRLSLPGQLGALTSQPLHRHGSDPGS
Test: not given
Set-up: hERG inhibition liability assay
Details: not given

| Structure (SMILES) | inhibition at 10 µM [%] |
| --- | --- |
| Nc1cccc(-c2ccc(-c3nnc(N)s3)cc2)c1 [2b] | 9.1 ± 4.4 |
| COC(=O)C(Cc1ccccc1)Nc1nnc(N)s1 (centres unmarked) [4p, Methyl 2G((5GaminoG1,3,4GthiadiazolG2Gyl)amino)G3Gphenylpropanoate] | 28.7 ± 10.5 |
| Nc1nnc(N)s1 [4a] | 4.7 ± 3.6 |
| COc1cccc(CNc2nnc(N)s2)c1 [4i] | 108 ± 9.6 |
| Nc1nnc(-c2ccc(OCc3ccc(Cl)c(Cl)c3)cc2)s1 [1r] | 40.7 ± 7.5 |

Biological target: T4, hDHFR (Homo sapiens, UniProt P00374)
T4 construct: gene DHFR
T4 sequence (P00374 1-187): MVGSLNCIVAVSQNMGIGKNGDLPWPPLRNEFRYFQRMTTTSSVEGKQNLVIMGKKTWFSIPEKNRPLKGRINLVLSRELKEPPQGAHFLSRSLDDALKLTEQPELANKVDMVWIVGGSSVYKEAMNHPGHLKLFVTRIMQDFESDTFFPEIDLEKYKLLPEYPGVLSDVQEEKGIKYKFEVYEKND
Test: biochemical
Set-up: human DHFR enzyme inhibition
Details: not given
Experimental: Figure 10 Summary heat map of the in vitro assays to determine possible liability issues for all synthesized compounds. Assays were performed to assess inhibition of hERG and five CYP isoforms (1A2, 2C9, 2C19, 2D6, and 3A4), growth inhibition of A549 and W1-38 cell lines, and mitochondrial toxicity at 10 μM. The hDHFR inhibition was determined at 100 μM. The data, expressed as percentage values, were organized by adopting a color code for rapid and intuitive visualization. The ideal compound should have all tiles blue, indicating a safe toxicological profile for progressing into the development pipeline. The cells are colored from blue (100% of cell growth at the tested concentration) to red (0% of cell growth at the tested concentration) for A549 and W1-38 and from blue (0% of inhibitory activity at the tested concentration) to red (100% of inhibitory activity at the tested concentration) for CYP isoforms, hERG, hDHFR, and mitochondrial toxicity.

| Structure (SMILES) | inhibition at 100 µM [%] |
| --- | --- |
| COC(=O)C(Cc1ccccc1)Nc1nnc(N)s1 (centres unmarked) [4p, Methyl 2G((5GaminoG1,3,4GthiadiazolG2Gyl)amino)G3Gphenylpropanoate] | 9 |
| Nc1nnc(N)s1 [4a] | 36 |
| COc1cccc(CNc2nnc(N)s2)c1 [4i] | 28 |
| Nc1nnc(-c2ccc(OCc3ccc(Cl)c(Cl)c3)cc2)s1 [1r] | 17 |

Same assay, conditions: 10 uM

| Structure (SMILES) | inhibition at 10 µM [%] |
| --- | --- |
| Nc1cccc(-c2ccc(-c3nnc(N)s3)cc2)c1 [2b] | 17 |

Tested on: not listed separately
Test: in vitro
Set-up: cytotoxicity, per cent cell growth of A549 cells
Details: human, a549 cells; read-out: % cell growth A549 at 10uM

| Structure (SMILES) | viability at 10 µM [%] |
| --- | --- |
| Nc1cccc(-c2ccc(-c3nnc(N)s3)cc2)c1 [2b] | 137 ± 11.1 |
| COC(=O)C(Cc1ccccc1)Nc1nnc(N)s1 (centres unmarked) [4p, Methyl 2G((5GaminoG1,3,4GthiadiazolG2Gyl)amino)G3Gphenylpropanoate] | 126 ± 3.5 |
| Nc1nnc(N)s1 [4a] | 113 ± 4.4 |
| COc1cccc(CNc2nnc(N)s2)c1 [4i] | 107 ± 5.8 |
| Nc1nnc(-c2ccc(OCc3ccc(Cl)c(Cl)c3)cc2)s1 [1r] | 104 ± 6.6 |
